In ChEMBL document CHEMBL4038308, “Lipophosphonoxins II: Design, Synthesis, and Properties of Novel Broad Spectrum Antibacterial Agents” (J Med Chem, 2017):
In brackets after ≈: the same amount, converted by molar mass. Activity calls are given as the source filed them. The calls are words filed in the database; no cut-off is given here.

Legend:
[1] = Apparent permeability across apical to basolateral side in human Caco2 cells at 200 uM after 3 hrs by LC-MS analysis; type: ADME, cell-based; settings: caco-2, 3 h
HepG2 [2] = test: Cytotoxicity against human HepG2 cells assessed as reduction in cell viability after 48 hrs by ATPlite reagent based assay; settings: hepg2, 48 h
[3] = system: Staphylococcus haemolyticus; test: Antibacterial activity against fluoroquinolne-resistant Staphylococcus haemolyticus 16568 after 24 hrs by microdilution method; type: functional; settings: Staphylococcus haemolyticus, 16568, 24 h
[4] = Chemical stability of compound at 50 to 500 mg/L at pH 8.8 after 24 hrs at room temperature by LC-MS analysis; type: physicochemical; settings: buffer, pH 8.8, 24 h
Bacillus subtilis [5] = test: Antibacterial activity against Bacillus subtilis after 24 hrs by microdilution method; type: functional
Enterococcus faecium = test: Antibacterial activity against vancomycin-resistant Enterococcus faecium 419/ana clinical isolates after 24 hrs by microdilution method; type: functional
Bacillus subtilis [6] = test: Antibacterial activity against Bacillus subtilis assessed as inhibition of peptidoglycan synthesis at 2.5 mg/L after 50 mins by [3H]-N-acetylglucosamine incorporation assay; type: functional
Escherichia coli [7] = test: Bactericidal activity against Escherichia coli CCM 3954 assessed as reduction in bacterial count at 6.25 to 25 mg/L after 45 mins by time kill assay; type: functional
Pseudomonas aeruginosa [8] = test: Antibacterial activity against Pseudomonas aeruginosa CCM 3955 after 24 hrs by microdilution method; type: functional; settings: CCM 3955, 24 h
[9] = Chemical stability of compound at 50 to 500 mg/L at pH 8.8 after 24 hrs at 37 degC by LC-MS analysis; type: physicochemical; settings: buffer, pH 8.8, 24 h
J774.A1 = test: Cytotoxicity against mouse J774A.1 cells assessed as damage to cell membrane by measuring propidium iodide intake at 5 mg/L by spectrofluorometric analysis; type: cell-based
Bacillus subtilis [10] = test: Antibacterial activity against Bacillus subtilis assessed as rupture of cell envelope at 10 mg/L after 10 mins by scanning electron microscopic analysis; type: functional
[11] = system: Staphylococcus epidermidis; test: Induction of cytoplasmic membrane permeabilization in Staphylococcus epidermidis 8700/B assessed as increase in propidium iodide fluorescence intensity at 5 mg/L by spectrofluorometric analysis; type: functional
Burkholderia multivorans = test: Antibacterial activity against Burkholderia multivorans after 24 hrs by microdilution method; type: functional
[12] = Chemical stability of compound at 50 to 500 mg/L at pH 5 after 24 hrs at room temperature by LC-MS analysis; type: physicochemical; settings: buffer, pH 5, 24 h
Oryctolagus cuniculus [13] = test: Toxicity in topically applied rabbit assessed as skin irritation measured by measuring physiological abnormalities up to 7 days post dose; settings: in vivo, topical_or_ocular, 168 h
[14] = Chemical stability of compound at 50 to 500 mg/L at pH 5 after 24 hrs at 37 degC by LC-MS analysis; type: physicochemical; settings: buffer, pH 5, 24 h
Staphylococcus aureus [15] = test: Induction of cytoplasmic membrane permeabilization in Staphylococcus aureus CCM 4223 assessed as increase in propidium iodide fluorescence intensity at 5 mg/L by spectrofluorometric analysis; type: functional
Oryctolagus cuniculus [16] = test: Toxicity in topically dosed rabbit assessed as skin irritation by measuring behavioral abnormalities measured up to 7 days post dose; type: organism-based; settings: in vivo, topical_or_ocular, 168 h
Bacillus subtilis [17] = test: Antibacterial activity against Bacillus subtilis assessed as inhibition of RNA synthesis at 2.5 mg/L after 50 mins by [3H]-uridine incorporation assay; type: functional
Salmonella enteritidis = test: Antibacterial activity against Salmonella enteritidis S2-25 after 24 hrs by microdilution method; type: functional, Salmonella enterica subsp. enterica serovar Enteritidis; settings: Salmonella enterica, S2-25, 24 h
BJ = test: Cytotoxicity against human BJ cells assessed as reduction in cell viability after 48 hrs by ATPlite reagent based assay
Mus musculus [18] = test: Toxicity in ICR mouse assessed as body weight loss up to 2000 mg/kg, po administered as single dose measured for 2 weeks; type: organism-based; settings: in vivo, 336 h
Mus musculus [19] = test: Toxicity in ICR mouse assessed as mortality up to 2000 mg/kg, po administered as single dose measured for 2 weeks; type: organism-based; settings: in vivo, 336 h
Staphylococcus aureus [20] = test: Bactericidal activity against Staphylococcus aureus CCM 4223 assessed as reduction in bacterial count at 6.25 mg/L after 6 to 24 hrs by time kill assay; type: functional
Escherichia coli [21] = test: Antibacterial activity against Escherichia coli CCM 3954 after 24 hrs by microdilution method; type: functional; settings: CCM 3954, 24 h
Escherichia coli [22] = test: Bactericidal activity against Escherichia coli CCM 3954 assessed as bacterial count at 25 mg/L up to 6 hrs by time kill assay; type: functional
Bacillus subtilis [23] = test: Antibacterial activity against Bacillus subtilis assessed as inhibition of plasma membrane lipids synthesis at 2.5 mg/L after 50 mins by [3H]-sodium acetate incorporation assay; type: functional
Streptococcus agalactiae = test: Antibacterial activity against Streptococcus agalactiae after 24 hrs by microdilution method; type: functional
TERT-RPE1 [24] = test: Cytotoxicity against human RPE1 cells assessed as reduction in cell viability after 48 hrs by ATPlite reagent based assay; settings: tert-rpe1, 48 h
Pseudomonas aeruginosa [25] = test: Antibacterial activity against Pseudomonas aeruginosa 16575 after 24 hrs by microdilution method; type: functional; settings: Pseudomonas aeruginosa, 16575, 24 h
Bacillus subtilis [26] = test: Antibacterial activity against Bacillus subtilis assessed as inhibition of DNA synthesis at 2.5 mg/L after 50 mins by [3H]thymidine incorporation assay; type: functional
Bacillus subtilis [27] = test: Antibacterial activity against Bacillus subtilis assessed as inhibition of protein synthesis at 2.5 mg/L after 50 mins by [35S]-methionine incorporation assay; type: functional
Pseudomonas aeruginosa [28] = test: Induction of cytoplasmic membrane permeabilization in Pseudomonas aeruginosa CCM 3955 assessed as increase in propidium iodide fluorescence intensity at 5 mg/L by spectrofluorometric analysis; type: functional
Staphylococcus aureus [29] = test: Bactericidal activity against Staphylococcus aureus CCM 4223 assessed as reduction in bacterial count at 6.25 to 25 mg/L after 15 mins by time kill assay; type: functional
HepG2 [30] = test: Cytotoxicity against human HepG2 cells assessed as disruption of cell membrane integrity after 4 hrs by CytoTox-ONE-based assay; settings: hepg2, 4 h
[31] = Pore forming activity across black lipid bilayer membranes assessed as induction of variation in membrane current by measuring pore conductance at 5 ug/ml
Staphylococcus aureus [32] = test: Bactericidal activity against Staphylococcus aureus CCM 4223 assessed as reduction in bacterial count at 25 mg/L after 5 hrs by time kill assay; type: functional
Staphylococcus aureus [33] = test: Antibacterial activity against Staphylococcus aureus CCM 4223 after 24 hrs by microdilution method; type: functional; settings: CCM 4223, 24 h
Acinetobacter baumannii = test: Antibacterial activity against Acinetobacter baumannii A3-08 after 24 hrs by microdilution method; type: functional; settings: A3-08, 24 h
[34] = Chemical stability of compound at 50 to 500 mg/L at pH 0.18 after 24 hrs at room temperature by LC-MS analysis; type: physicochemical; settings: buffer, pH 0.18, 24 h
HepG2 [35] = test: Induction of apoptosis in human HepG2 cells assessed as caspase 3/7 activation up to 80 mg/L after 4 hrs by caspase-Glo 3/7 luminescent assay; type: cell-based; settings: hepg2, 4 h
TERT-RPE1 [36] = test: Cytotoxicity against human RPE1 cells assessed as disruption of cell membrane integrity at >80 mg/L after 4 hrs by CytoTox-ONE-based assay; settings: tert-rpe1, 4 h

## CCCCCCCCCCCCCCOP(=O)(CCN(CCCN)CCCN)OC[C@H]1O[C@@H](n2ccc(=O)[nH]c2=O)[C@H](O)[C@@H]1O (stereo partly drawn)
[1]
  permeability: Impermeable
HepG2 [2]
  Activity: 40.3 mg/L
[3]
  MIC: 1.56 mg/L (≈ 2.36 µM)
[4]
  Stability: Stable
Bacillus subtilis [5]
  MIC: 0.78 mg/L (≈ 1.18 µM)
Enterococcus faecium
  MIC: 100 mg/L (≈ 151 µM)
Bacillus subtilis [6]
  inhibition: inactive
Escherichia coli [7]
  Activity: Active
Pseudomonas aeruginosa [8]
  MIC: 0.78 mg/L (≈ 1.18 µM)
[9]
  Stability: Stable
J774.A1
  Activity: Non-Toxic
Bacillus subtilis [10]
  Activity: Active
[11]
  Activity: Active
Burkholderia multivorans
  MIC: 50 mg/L (≈ 75.5 µM)
[12]
  Stability: Stable
Oryctolagus cuniculus [13]
  Activity: Non-Toxic
[14]
  Stability: Stable
Staphylococcus aureus [15]
  Activity: Active
Oryctolagus cuniculus [16]
  Activity: Non-Toxic
Bacillus subtilis [17]
  inhibition: inactive
Salmonella enteritidis
  MIC: 3.13 mg/L (≈ 4.73 µM)
BJ
  Activity: 30.7 mg/L
Mus musculus [18]
  Activity: Non-Toxic
Mus musculus [19]
  Activity: Non-Toxic
Staphylococcus aureus [20]
  Activity: Active
Escherichia coli [21]
  MIC: 6.25 mg/L (≈ 9.44 µM)
Escherichia coli [22]
  Activity: 0
Bacillus subtilis [23]
  inhibition: inactive
Streptococcus agalactiae
  MIC: 3.13 mg/L (≈ 4.73 µM)
TERT-RPE1 [24]
  Activity: 43 mg/L
Pseudomonas aeruginosa [25]
  MIC: 1.56 mg/L (≈ 2.36 µM)
Bacillus subtilis [26]
  inhibition: inactive
Bacillus subtilis [27]
  inhibition: inactive
Pseudomonas aeruginosa [28]
  Activity: Active
Staphylococcus aureus [29]
  Activity: Active
HepG2 [30]
  Activity: Non-Toxic
[31]
  Activity: 73 to 151 pS
Staphylococcus aureus [32]
  Activity: Active
Staphylococcus aureus [33]
  MIC: 6.25 mg/L (≈ 9.44 µM)
Acinetobacter baumannii
  MIC: 12.5 mg/L (≈ 18.9 µM)
[34]
  Stability: Stable
HepG2 [35]
  Activity: Non-Toxic
TERT-RPE1 [36]
  Activity: Non-Toxic
